Legend:
[1] = target: T1, Glutamate receptor ionotropic, AMPA (Rattus norvegicus, UniProt P19490+P19491+P19492+P19493); assay: Inhibition of binding to AMPA receptor from rat cerebral cortex; format: tissue-based
[2] = target: T1, Glutamate receptor ionotropic, AMPA; assay: Effective concentration of glutamate required to increase specific binding of [3H]6 to rat cerebral cortical membranes.
[3] = target: T1, Glutamate receptor ionotropic, AMPA; assay: Effective concentration of AMPA required to increase specific binding of [3H]6 to rat cerebral cortical membranes.

Row | SMILES | IC50 [1] [µM] | EC50 [2] [µM] | EC50 [3] [µM]
1 | CC(CNS(=O)(=O)C(C)C)c1ccc(NC(=O)c2ccccc2)cc1 (centres undefined) | 0.17 | 31 | 5.5
2 | NS(=O)(=O)c1cc2c(cc1Cl)NC(C1CC3C=CC1C3)NS2(=O)=O (centres undefined) [CYCLOTHIAZIDE] | 6.1 |  | 

— ChEMBL document CHEMBL1134333, “[3H]N-2-(4-(N-benzamido)phenyl)propyl-2-propanesulfonamide: a novel AMPA receptor potentiator and radioligand” (J Med Chem, 2001)
